Reference: US12509460B2 (Skyhawk Therapeutics, Inc., priority 2019, dated 2025)

Experiments:
[1] = tested on: mHTT protein in GM04724 (CAG 70/20) Huntington's disease patient lymphoblast cells; assay: mHTT protein assay, 2B7-MW1 assay via Mesoscale Discovery (MSD); format: cell-based, human; conditions: GM04724 Huntington's disease patient lymphoblasts
Summary of the method: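 Signal from the 2B7-MW1 antibody pair on MSD, rising with polyQ length and smaller HTT fragments, measured mHTT after 48 h compound exposure (0.6 nM–10 μM) in GM04724 cells. A parallel replicate plate gave CellTiter Glo viability.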

MDR1 (P-gp) = assay: Blood-brain-barrier (BBB) penetration potential via MDCK-MDR1 permeability assay; conditions: dog; for Papp A→B at 120 min, 5 μM: MDCK-MDR1, pH 7.4, MDCK-MDR1: Papp A-B, A-B direction; for Papp B→A at 120 min, 5 μM: MDCK-MDR1, pH 7.4, MDCK-MDR1: Papp B-A, B-A direction
Procedure: (§1) Example A13: Assessment of Blood-Brain-Barrier (BBB) Penetration Potential Via an MDCK-MDR1 Permeability Assay
(§2) The permeability of compounds is assessed for BBB penetration potential by use of an MDCK-MDR1 assay (Catalog EA203) performed by Absorption Systems, Exton PA.
(§3) Experimental Procedure: MDR1-MDCK cell monolayers are grown to confluence on collagen-coated, microporous membranes in 12-well assay plates. The permeability assay buffer is Hanks' balanced salt solution containing 10 mM HEPES and 15 mM glucose at a pH of 7.4. The buffer in the receiver chamber also contained 1% bovine serum albumin. The dosing solution concentration is 5 μM of test article in the assay buffer. Cell monolayers are dosed on the apical side (A-to-B) or basolateral side (B-to-A) and incubated at 37° C. with 5% CO2 in a humidified incubator. Samples are taken from the donor and receiver chambers at 120 minutes. Each determination is performed in duplicate. The flux of lucifer yellow is also measured post-experimentally for each monolayer to ensure no damage is inflicted to the cell monolayers during the flux period. All samples are assayed by LC-MS/MS using electrospray ionization.
(§4) The apparent permeability (Papp) and percent recovery are calculated as follows:
(§5) Analytical Method: Liquid Chromatography. Column: Waters ACQUITY UPLC BEH Phenyl 30 ×2.1 mm, 1.7 μm; M.P. Buffer. 25 mM ammonium formate buffer, pH 3.5; Aqueous Reservoir (A): 90% water, 10% buffer, Organic Reservoir (B): 90% acetonitrile, 10% buffer, Flow Rate: 0.7 mL/minute; Gradient Program:
(§6) • Total Run Time: 1.00 minute • Autosampler. 2 μL injection volume • Wash1: water/methanol/2-propanol:1/1/1; with 0.2% formic acid • Wash2: 0.1% formic acid in water • Brain Penetration • Potential Classification: A-B Papp≥3.0 and Efflux Ratio <3.0: High • A-B Papp≥3.0 and 10≥Efflux Ratio >3.0: Moderate • A-B Papp≥3.0 and Efflux Ratio≥10: Low • A-B Papp<3.0: Low

[2] = tested on: MDR1-MDCK cell monolayers; assay: as above; conditions: for MDCK-MDR1: % Recov A-B: A-B direction; for MDCK-MDR1: % Recov B-A: B-A direction
Procedure: as §1, §2, §3, §4, §5, §6

MDR1 = assay: as above; conditions: dog, MDCK-MDR1, pH 7.4, MDCK-MDR1: Efflux, efflux ratio
Procedure: as §1, §2, §3, §4, §5, §6

[3] = tested on: SMN FL and SMN Δ7 in spinal muscular atrophy (SMA) patient fibroblasts (GM03813, Coriell); assay: Quantitative splicing assay (SMN), qPCR; format: cell-based, human; conditions: Homo sapiens, Fibroblast, 24 h, SMA patient fibroblasts GM03813, 24 h, qPCR; read-out: SMN2 Splicing FL EC50
Procedure: Spinal muscular atrophy (SMA) patient fibroblasts (GM03813, Coriell) are plated in 96-well plates at 50,000 cells/well. […] Treated cells are lysed and cDNA synthesized using the Fast Advanced Cells-to-Ct kit (Thermofisher A35378) according to the manufacturer's instructions. 2 μL of each cDNA are used in qPCR reactions. […] Reactions are run in a Quant Studio 6 qPCR instrument with default settings.

[4] = Quantitative splicing assay (HTT), qPCR; format: cell-based, human; conditions: Homo sapiens, GM04724, 24 h, GM04724 lymphoblasts, qPCR, read-out: HTT Splicing: E49-50 EC50
Summary of the method: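 TaqMan qPCR on cell-lysate cDNA quantifies cryptic-exon inclusion from HTT intron 49. Lymphoblasts plated at 50,000 cells/well had received compound for 24 h, 0.15 nM-2.5 uM range, 0.1% DMSO.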

[5] = tested on: SMN protein in spinal muscular atrophy (SMA) patient fibroblasts (GM03813, Coriell); assay: SMN protein assay, Mesoscale Discovery (MSD); format: cell-based, human; conditions: SMA patient fibroblasts GM03813, 48 hours, MSD; read-out: SMN2 protein EC50
Summary of the method: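 Absolute SMN levels were quantified by MSD against an SMN protein standard curve (1 μg/ml to 19.5 pg/ml) run on each plate. Samples were lysates of GM03813 patient fibroblasts (7000 cells/well) treated 48 hours with compound doses from 2.5 μM down to 0.6 nM.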

Structure (SMILES) | EC50 [1] [nM] | Papp A→B at 120 min, 5 μM (MDR1 (P-gp)) [×10⁻⁶ cm/s] | Papp B→A at 120 min, 5 μM (MDR1 (P-gp)) [×10⁻⁶ cm/s] | MDCK-MDR1: % Recov A-B [2] [%] | MDCK-MDR1: % Recov B-A [2] [%] | efflux ratio at 120 min, 5 μM (MDR1) | EC50 [3] [nM] | EC50 [4] [nM] | EC50 [5] [nM]
O=C(c1cc2cc(O)c(-c3ccc(N(C4CC4)[C@H]4C[C@@H]5CC[C@@H](N5)[C@H]4F)nn3)cc2o1)N1CCC1 [Compound 57B, azetidin-1-yl(6-(6-(cyclopropyl((1R,2R,3S,5S)-2-fluoro-8-azabicyclo[3.2.1]octan-3-yl)amino)pyridazin-3-yl)-5-hydroxybenzofuran-2-yl)methanone] | 0.01 to 15 | 0.69 | 48.5 | 99 | 95 | 71 | 16 to 50 | 16 to 50 | 0.01 to 15
CN(c1ccc(-c2ccc(-n3ccnn3)cc2O)nn1)[C@H]1C[C@@H]2CC[C@@H](N2)[C@H]1F [Compound 61B, 2-(6-(((1R,2R,3S,5S)-2-fluoro-8-azabicyclo[3.2.1]octan-3-yl)(methyl)amino)pyridazin-3-yl)-5-(1H-1,2,3-triazol-1-yl)phenol] | 0.01 to 15 | 3.79 | 45.8 | 98 | 93 | 12 | 0.01 to 15 | 0.01 to 15 | 0.01 to 15
CN(c1ccc(-c2ccc(-n3ccnn3)cc2O)nn1)[C@@H]1C[C@H]2CCC[C@H](N2)[C@@H]1F [Compound 62A, 2-(6-(((1S,2S,3R,5R)-2-fluoro-9-azabicyclo[3.3.1]nonan-3-yl)(methyl)amino)pyridazin-3-yl)-5-(1H-1,2,3-triazol-1-yl)phenol] | 0.01 to 15 | 3.37 | 61.4 | 113 | 109 | 18 | 16 to 50 | 0.01 to 15 | 16 to 50
CN(c1ccc(-c2ccc(-n3ccnn3)cc2O)nn1)[C@H]1C[C@@H]2CCC[C@@H](N2)[C@H]1F [Compound 62B, 2-(6-(((1R,2R,3S,5S)-2-fluoro-9-azabicyclo[3.3.1]nonan-3-yl)(methyl)amino)pyridazin-3-yl)-5-(1H-1,2,3-triazol-1-yl)phenol] | 0.01 to 15 | 3.18 | 59.8 | 82 | 80 | 19 | 0.01 to 15 | 0.01 to 15 | 0.01 to 15
CN(c1ccc(-c2cc3ncccc3cc2O)nn1)[C@@H]1C[C@H]2CC[C@H](N2)[C@@H]1F [Compound 73A, 7-(6-(((1S,2S,3R,5R)-2-fluoro-8-azabicyclo[3.2.1]octan-3-yl)(methyl)amino)pyridazin-3-yl)quinolin-6-ol] | 0.01 to 15 | 2.92 | 61.3 | 76 | 91 | 21 | 0.01 to 15 | 0.01 to 15 | 0.01 to 15
CN(c1ccc(-c2cc3ncccc3cc2O)nn1)[C@H]1C[C@@H]2CC[C@@H](N2)[C@H]1F [Compound 73B, 7-(6-(((1R,2R,3S,5S)-2-fluoro-8-azabicyclo[3.2.1]octan-3-yl)(methyl)amino)pyridazin-3-yl)quinolin-6-ol] | 16 to 50 | 3.38 | 55.1 | 72 | 72 | 16 | 0.01 to 15 | 0.01 to 15 | 16 to 50
CN(c1ccc(-c2cc3cccnc3cc2O)nn1)[C@H]1C[C@@H]2CC[C@@H](N2)[C@H]1F [Compound 74B, 6-(6-(((1R,2R,3S,5S)-2-fluoro-8-azabicyclo[3.2.1]octan-3-yl)(methyl)amino)pyridazin-3-yl)quinolin-7-ol] | 0.01 to 15 | 3 | 56 | 77 | 90 | 19 | 16 to 50 | 51 to 100 | 0.01 to 15
CN(c1ccc(-c2cc3cncnc3cc2O)nn1)[C@H]1C[C@@H]2CC[C@@H](N2)[C@H]1F [Compound 75B, 6-(6-(((1R,2R,3S,5S)-2-fluoro-8-azabicyclo[3.2.1]octan-3-yl)(methyl)amino)pyridazin-3-yl)quinazolin-7-ol] | 51 to 100 | 2.44 | 50.5 | 88 | 90 | 21 | 16 to 50 | 51 to 100 | 16 to 50
CN(c1ccc(-c2cc3cnn(C)c3cc2O)nn1)[C@@H]1C[C@H]2CC[C@H](N2)[C@@H]1F [Compound 76A, 5-(6-(((1S,2S,3R,5R)-2-fluoro-8-azabicyclo[3.2.1]octan-3-yl)(methyl)amino)pyridazin-3-yl)-1-methyl-1H-indazol-6-ol] | 16 to 50 | 5.55 | 69.2 | 83 | 88 | 12 | 101 to 500 | 101 to 500 | 16 to 50
CN(c1ccc(-c2cc3cnn(C)c3cc2O)nn1)[C@H]1C[C@@H]2CC[C@@H](N2)[C@H]1F [Compound 76B, 5-(6-(((1R,2R,3S,5S)-2-fluoro-8-azabicyclo[3.2.1]octan-3-yl)(methyl)amino)pyridazin-3-yl)-1-methyl-1H-indazol-6-ol] | 0.01 to 15 | 3.97 | 60.3 | 84 | 93 | 15 | 16 to 50 | 16 to 50 | 0.01 to 15
CN(c1ccc(-c2cc3ncccc3cc2O)nn1)[C@@H]1C[C@H]2CCC[C@H](N2)[C@@H]1F [Compound 78A, 7-(6-(((1S,2S,3R,5R)-2-fluoro-9-azabicyclo[3.3.1]nonan-3-yl)(methyl)amino)pyridazin-3-yl)quinolin-6-ol] | 16 to 50 | 2.19 | 50.5 | 74 | 89 | 23 | 51 to 100 | 16 to 50 | 16 to 50
CN(c1ccc(-c2cc3ncccc3cc2O)nn1)[C@H]1C[C@@H]2CCC[C@@H](N2)[C@H]1F [Compound 78B, 7-(6-(((1R,2R,3S,5S)-2-fluoro-9-azabicyclo[3.3.1]nonan-3-yl)(methyl)amino)pyridazin-3-yl)quinolin-6-ol] | 0.01 to 15 | 4.03 | 50.3 | 73 | 79 | 12 | 0.01 to 15 | 0.01 to 15 | 0.01 to 15
CN(c1ccc(-c2cc3c(=O)n(C)ccc3cc2O)nn1)[C@@H]1C[C@H]2CC[C@H](N2)[C@@H]1F [Compound 83A, 7-(6-(((1S,2S,3R,5R)-2-fluoro-8-azabicyclo[3.2.1]octan-3-yl)(methyl)amino)pyridazin-3-yl)-6-hydroxy-2-methylisoquinolin-1(2H)-one] | 0.01 to 15 | 0.98 | 43.5 | 89 | 83 | 44 | 0.01 to 15 | 0.01 to 15 | 0.01 to 15
CN(c1ccc(-c2cc3c(=O)n(C)ccc3cc2O)nn1)[C@H]1C[C@@H]2CC[C@@H](N2)[C@H]1F [Compound 83B, 7-(6-(((1R,2R,3S,5S)-2-fluoro-8-azabicyclo[3.2.1]octan-3-yl)(methyl)amino)pyridazin-3-yl)-6-hydroxy-2-methylisoquinolin-1(2H)-one] | 0.01 to 15 | 1.43 | 44.4 | 77 | 72 | 31 | 0.01 to 15 | 0.01 to 15 | 0.01 to 15
